Test system: not given
Test: not given
Conditions: not given

SMILES	melting point
CCc1cn2c(N)c(Cl)cc(C(=O)NC3CCN(CCCOC)CC3)c2n1	179 °C
CCCCN1CCC(CNC(=O)c2ccc(N)n3cc(CCC)nc23)CC1	172 °C
CCCCN1CCC(CNC(=O)c2cc(Cl)c(N)n3cc(C(C)C)nc23)CC1	168 °C
CCCCN1CCC(CNC(=O)c2ccc(N)n3cc(-c4ccccc4)nc23)CC1	221 °C
CCc1cn2c(N)c(Cl)cc(C(=O)NCC3CCN(CC(C)(C)OC)CC3)c2n1	211 °C
COC(C)(C)CN1CCC(CNC(=O)c2cc(Cl)c(N)n3cc(C)nc23)CC1	211 °C
CCCCN1CCC(CNC(=O)c2cc(Cl)c(N)n3cc(C)nc23)CC1	188 to 191 °C
COCCCN1CCC(CNC(=O)c2cc(Cl)c(N)n3cc(C)nc23)CC1	167 °C

The remaining lines, values ahead:

melting point	SMILES
139 to 145 °C	CCCCN1CCC(CNC(=O)c2ccc(N)n3cc(CC)nc23)CC1
153 °C	CCc1cn2c(N)c(Cl)cc(C(=O)NCC3CCNCC3)c2n1
243 °C	CCCc1cn2c(N)c(Cl)cc(C(=O)NC3CCN(CCCOC)CC3)c2n1.Cl
238 °C	CCCc1cn2c(N)ccc(C(=O)NC3CCN(CCCOC)CC3)c2n1.Cl
138 °C	CCCCN1CCC(CNC(=O)c2ccc(N)n3cc(C(C)C)nc23)CC1
263 °C	CCCCN1CCC(CNC(=O)c2cc(Cl)c(N)n3cc(-c4ccccc4)nc23)CC1.Cl
113 °C	CCCCN1CCC(CNC(=O)c2ccc(N)n3cc(Cl)nc23)CC1
216 to 219 °C	Cc1cn2c(N)c(Cl)cc(C(=O)NCC3CCN(CC(C)C)CC3)c2n1
234 °C	CCc1cn2c(N)c(Cl)cc(C(=O)NCC3CCN(CCC(C)(C)C)CC3)c2n1
148 °C	CCCCN1CCC(CNC(=O)c2cc(Cl)c(NC)n3ccnc23)CC1
125 °C	CNc1c(Cl)cc(C(=O)NCC2CCN(CCCOC)CC2)c2nccn12

Target: T1, 5-HT4 receptors (Rattus norvegicus, UniProt Q62758)
T1 construct: The remaining inner tube of smooth muscle was known as the TMM; from tissue; host or cells: rat oesophagus tunica muscularis mucosae (TMM), male SD rats (Charles River)
Test: Functional assay: rat oesophagus TMM relaxation
Conditions: carbachol-contracted rat oesophagus TMM, 1 μM antagonist
Text: More specifically, partial agonist activity can be measured according to the following procedures.
Male SD rats (Charles River) weighing 250-350 g were stunned and then killed by cervical dislocation. The oesophagus was dissected from immediately proximal to the stomach (including piece of stomach to mark distal end) up to the level of the trachea and then placed in fresh Krebs' solution.
The outer skeletal muscle layer was removed in one go by peeling it away from the underlying smooth muscle layer using forceps (stomach to tracheal direction). The remaining inner tube of smooth muscle was known as the TMM. This was trimmed to 2 cm from the original ‘stomach-end’ and the rest discarded.
The TMMs were mounted as whole ‘open’ tubes in longitudinal orientation in 5 ml organ baths filled with warm (32° C.) aerated Krebs. Tissues were placed under an initial tension of 750 mg and allowed to equilibrate for 60 minutes. The tissues were re-tensioned twice at 15 minute intervals during the equilibration period. The pump flow rate was set to 2 ml/min during this time.
Following equilibration, the pump was switched off. The tissues were exposed to 1 μM carbachol and contracted and reached a steady contractile plateau within 15 minutes. Tissues were then subject to 1 μM 5-HT (this was to prime the tissues). The tissues relaxed in response to 5-HT fairly rapidly—within 1 minute. […]

T1 sequence (Q62758 whole entry): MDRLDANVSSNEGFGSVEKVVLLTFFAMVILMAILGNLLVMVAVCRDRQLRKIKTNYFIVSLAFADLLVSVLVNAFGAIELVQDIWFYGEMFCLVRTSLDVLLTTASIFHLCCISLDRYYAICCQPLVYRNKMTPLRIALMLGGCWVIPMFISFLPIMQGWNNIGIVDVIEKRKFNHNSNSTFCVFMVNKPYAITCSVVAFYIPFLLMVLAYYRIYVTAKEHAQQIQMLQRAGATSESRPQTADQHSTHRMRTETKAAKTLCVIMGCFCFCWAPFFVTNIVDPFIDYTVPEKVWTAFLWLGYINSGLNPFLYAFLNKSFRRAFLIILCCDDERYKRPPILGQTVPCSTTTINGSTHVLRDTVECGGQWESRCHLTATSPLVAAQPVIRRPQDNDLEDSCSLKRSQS

SMILES	reversal of 5-HT induced relaxation
O=C(OCCN1CCCCC1)c1c[nH]c2ccccc12 [SB 203,186, 1H-Indole-3-carboxylic acid, 2-(1-piperidinyl)ethyl ester]	reversed 5-HT induced relaxation

— patent publication US6624162B2, “Imidazopyridine compounds as 5-HT4 receptor modulators” (Pfizer Inc., priority 2001, dated 2003)
